Assays:
Assay type in all cases: cell-based
[1] = tested on: human epithelial HeLa cells; assay: HeLa cytotoxicity assay (CellTiter-Glo); settings: pCC50
Summary of the method: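 HeLa cells (5,000/well) stimulated with 10 nM IFN-γ, exposed to 11-point 3-fold compound dilutions for 2 days at 37 °C; viability by CellTiter-Glo ATP luminescence. Normalized to cell-free (100% cytotoxicity) and stimulated-cell DMSO (0%) controls; four-parameter fit gives pCC50.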

[2] = molecular target: T1, indoleamine 2, 3-dioxygenase (IDO1) (Homo sapiens, UniProt P14902); assay: IDO1 PBMC RapidFire MS assay (kynurenine detection by mass spectrometry); set-up: to induce the expression of indoleamine 2, 3-dioxygenase (IDO1); host or cells: human PBMC stimulated with IFN-gamma and LPS; settings: human PBMC stimulated with IFN-γ and LPS, 2 days, pIC50, read-out: PBMC PXC50 (converted)
T1 sequence (P14902 whole entry): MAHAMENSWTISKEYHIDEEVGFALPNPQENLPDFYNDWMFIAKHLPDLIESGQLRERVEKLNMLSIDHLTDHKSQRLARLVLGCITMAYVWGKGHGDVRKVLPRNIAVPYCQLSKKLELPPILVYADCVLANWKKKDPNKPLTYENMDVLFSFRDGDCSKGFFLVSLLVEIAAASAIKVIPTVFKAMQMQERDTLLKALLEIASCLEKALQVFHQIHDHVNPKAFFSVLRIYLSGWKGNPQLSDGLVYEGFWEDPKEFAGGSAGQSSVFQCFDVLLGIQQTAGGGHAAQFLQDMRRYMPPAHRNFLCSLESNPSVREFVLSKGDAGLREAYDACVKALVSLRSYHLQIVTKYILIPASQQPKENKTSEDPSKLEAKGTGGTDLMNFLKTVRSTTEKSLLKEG
Summary of the method: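 PBMCs (50,000 cells/well) stimulated with IFN-γ 100 ng/ml plus LPS 50 ng/ml, treated with 11-point 3-fold compound series for 2 days at 37° C. Supernatant kynurenine measured by RapidFire MS, normalised to internal standard; parallel cytotoxicity by CellTiter-Glo luminescence; curves fitted for XC50.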

[3] = tested on: human peripheral blood mononuclear cells (PBMC); assay: PBMC cytotoxicity assay (CellTiter-Glo); settings: 2 days, pCC50
Summary of the method: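 Human PBMC (50,000 cells/well) stimulated with IFN-γ 100 ng/ml and LPS 50 ng/ml were exposed to 11-point 3-fold compound dilutions for 2 days at 37 °C, 5% CO2. Viability read by CellTiter-Glo ATP luminescence and normalized to no-cell and stimulated-DMSO controls. XC50 derived by four-parameter fit.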

[4] = molecular target: T1, indoleamine 2, 3-dioxygenase (IDO1); assay: IDO1 HeLa RapidFire MS assay (kynurenine detection by mass spectrometry); set-up: to induce the expression of indoleamine 2, 3-dioxygenase (IDO1); settings: HeLa cells, pIC50, read-out: IDO1_HELA_PXC50 (converted)
Summary of the method: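 Compound potency reported as pIC50 from kynurenine/internal-standard ratio (RapidFire MS) in supernatant of IFN-γ-induced (10 nM) HeLa cells, 5,000 per well, after 2 days' treatment with 11-point dilutions. Cytotoxicity in the same format by luminescent ATP detection, reported as pCC50.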

IC50 [2] [nM] | IC50 [4] [nM] | Structure (SMILES) | HELA_IDO1_TOX_PXC50 [1] | PBMC TOX PXC50 [3]
1.26 | 3.98 | CC(C)CN(c1ccc([C@H](C)CC(=O)O)cc1Nc1nc(C(F)(F)F)ns1)C1CCN(C(=O)OC(C)C)CC1 [Example 65, (R)-3-(4-(isobutyl(1-(isopropoxycarboxyl)piperidin-4-yl)amino)-3-((3-(trifluoromethyl)-1,2,4-thiadiazol-5-yl)amino)phenyl)butanoic Acid] | <5 | <5
200 | 398 | CC(C)CN(c1ccc([C@H](C)CC(=O)O)cc1NC1CCCC(C)(C)C1)C1CCCCC1 (stereo partly drawn) [example 183, (3R)-3-{4-[cyclohexyl(2-methylpropyl)amino]-3-[(3,3-dimethylcyclohexyl)ami-no]phenyl}butanoic acid] | <5 | <5
20 | 100 | CC(C)CN(c1ccc(-c2ccccc2C(=O)O)cc1Nc1nc(C(F)(F)F)ns1)[C@H]1CC[C@@H](O)CC1 [example 279, 4′-[(2-methylpropyl)[(1s,4s)-4-hydroxycyclohexyl]amino]-3′-{[3-(trifluoromethyl)-1,2,4-thiadiazol-5-yl]amino}-[1,1′-biphenyl]-2-carboxylic acid] | <5 | <5
3160 | 2000 | CC(C)CN(c1ccc(C(C)CC(=O)O)cc1NC1=NC(=O)[C@@H](C)N1)C1CCCCC1 (stereo partly drawn) [example 163, 3-{4-[cyclohexyl(2-methylpropyl)amino]-3-{[(5R)-5-methyl-4-oxo-4,5-dihydro-1H-imidazol-2-yl]amino}phenyl}butanoic acid] | <5 | <5
1.58 | 3.16 | CC(C)CN(c1ccc(C(C)CC(=O)O)cc1Nc1nc(C(F)(F)F)ns1)C1CCOCC1 (centres unmarked) [example 202, 3-{4-[(2-methylpropyl)(oxan-4-yl)amino]-3-{[3-(trifluoromethyl)-1,2,4-thiadiazol-5-yl]amino}phenyl}butanoic acid] | <5 | <5
3.98 | 5.01 | CC(C)CN(c1ccc(-c2cccnc2C(=O)O)cc1Nc1nc(C(F)(F)F)ns1)C1CCCCC1 [Example 88, 3-(4-(cyclohexyl(isobutyl)amino)-3-((3-(trifluoromethyl)-1,2,4-thiadiazol-5-yl)amino)phenyl)picolinic Acid] | <5 | <5
20 | 50.1 | CC(C)CN(CC(C)C)c1ccc(-c2ccccc2C(=O)O)cc1Nc1nc2ccccc2[nH]1 [example 297, 3′-[(1H-1,3-benzodiazol-2-yl)amino]-4′-[bis(2-methylpropyl)amino]-[1,1′-biphenyl]-2-carboxylic acid] | <5 | <5
10 | 20 | COCc1ccc(Nc2cc([C@H](C)CC(=O)O)ccc2N(CC(C)C)C2CCOCC2)cn1 [Example 31, (R)-3-(4-(isobutyl(tetrahydro-2H-pyran-4-yl)amino)-3-((6-(methoxymethyl)pyridin-3-yl)amino)phenyl)butanoic Acid] | 5 | <5
2000 | 3160 | CC(C)CN(CC(C)C)c1ccc(C(C)CC(=O)O)cc1Nc1nc(-c2ccccc2)ns1 (centres unmarked) [example 115, 3-{4-[bis(2-methylpropyl)amino]-3-[(3-phenyl-1,2,4-thiadiazol-5-yl)amino]phenyl}butanoic acid] | <4.3 | 4.9
20 | 100 | CNC(=O)N1CCC(N(CC(C)C)c2ccc([C@H](C)CC(=O)O)cc2Nc2nc(C(F)(F)F)ns2)CC1 [example 262, (3R)-3-(4-{[1-(methylcarbamoyl)piper-idin-4-yl](2-methylpropyl)amino}-3-{[3-(trifluoromethyl)-1,2,4-thiadiazol-5-yl]amino}phenyl)butanoic acid] | <5 | <5
0.501 | 5.01 | CC[C@H](CC(=O)O)c1ccc(N(CC(C)C)C2CCCCC2)c(Nc2nc(Cl)ns2)c1 [Example 42] | <5 | <5
31.6 | 63.1 | COCCc1nnc(Nc2cc([C@H](C)CC(=O)O)ccc2N(CC(C)C)CC(C)C)[nH]1 [example 203, (3R)-3-{4-[bis(2-methylpropyl)amino]-3-{[5-(2-methoxyethyl)-4H-1,2,4-triazol-3-yl]amino}phenyl}butanoic acid] | <5 | <5
3160 | 3160 | CC(C)CN(c1ccc(C(C)CC(=O)O)cc1NC1=N[C@@H](C)CO1)C1CCCCC1 (stereo partly drawn) [example 152, 3-{4-[cyclohexyl(2-methylpropyl)amino]-3-{[(4S)-4-methyl-4,5-dihydro-1,3-oxazol-2-yl]amino}phenyl}butanoic acid] | 5.4 | <5
200 | 398 | COCCN(c1ccc(-c2ccccc2C(=O)O)cc1Nc1nc2ccccc2o1)C1CCCCC1 [example 284, 3′-[(1,3-benzoxazol-2-yl)amino]-4′-[cyclohexyl(2-methoxyethyl)amino]-[1,1′-biphenyl]-2-carboxylic acid] | <5 | <5
10 | 25.1 | CC(C)CN(CC(C)C)c1ccc(-c2ccccc2C(=O)O)cc1Nc1nc(C(F)(F)F)ns1 [Example 90, 4′-(diisobutylamino)-3′-((3-(trifluoromethyl)-1,2,4-thiadiazol-5-yl)amino)-[1,1′-biphenyl]-2-carboxylic Acid] | <5 | <5
10 | 39.8 | COCC(=O)N1CCC(N(CC(C)C)c2ccc([C@H](C)CC(=O)O)cc2Nc2nc(C(F)(F)F)ns2)CC1 [Example 72, (R)-3-(4-(isobutyl(1-(2-methoxyacetyl)piperidin-4-yl)amino)-3-((3-(trifluoromethyl)-1,2,4-thiadiazol-5-yl)amino)phenyl)butanoic Acid] | <5 | <5
3.98 | 10 | CO[C@H]1CC[C@H](N(CC(C)C)c2ccc(-c3ccccc3C(=O)O)cc2Nc2nc(C(F)(F)F)ns2)CC1 [Example 111, 4′-(isobutyl((1r,4r)-4-methoxycyclohexyl)amino)-3′-((3-(trifluoromethyl)-1,2,4-thiadiazol-5-yl)amino)-[1,1′-biphenyl]-2-carboxylic Acid] | <5 | <5
5.01 | 20 | CC(C)CN(c1ccc([C@H](C)CC(=O)O)cc1Nc1nc(C(F)(F)F)ns1)C1CCN(S(C)(=O)=O)CC1 [Example 71] | <5 | <5
2.51 | 31.6 | CC(C)CN(c1ccc(C(C)CC(=O)O)cc1Nc1nc(Cl)ns1)C1CCOCC1 (centres unmarked) [Example 21, 3-(3-((3-chloro-1,2,4-thiadiazol-5-yl)amino)-4-(isobutyl(tetrahydro-2H-pyran-4-yl)amino)phenyl)butanoic Acid] | <5 | 5.2
158 | 316 | CC(C)CN(c1ccc([C@H](C)CC(=O)O)cc1NC1CCC1)C1CCCCC1 [example 181, (3R)-3-[3-(cyclobutylamino)-4-[cyclohexyl(2-methylpropyl)amino]phenyl]butanoic acid] | <5 | <5
2510 | 2000 | CC(C)CN(c1ccc(C(C)CC(=O)O)cc1NC1=N[C@H](C)CO1)C1CCCCC1 (stereo partly drawn) [example 151, 3-{4-[cyclohexyl(2-methylpropyl)amino]-3-{[(4R)-4-methyl-4,5-dihydro-1,3-oxazol-2-yl]amino}phenyl}butanoic acid] | <5 | <5
2 | 6.31 | CC(C)CN(c1ccc([C@H](C)CC(=O)O)cc1Nc1ccc(Cl)nc1)[C@H]1CC[C@H](O)CC1 [Example 49, (R)-3-(3-((6-chloropyridin-3-yl)amino)-4-(((1r,4R)-4-hydroxycyclohexyl) (isobutyl)amino)phenyl)butanoic Acid] | <5 | <5
39.8 | 251 | Cc1nnc(Nc2cc(-c3ccccc3C(=O)O)ccc2N(CC(C)C)CC(C)C)s1 [example 298, 4′-[bis(2-methylpropyl)amino]-3′-[(5-methyl-1,3,4-thiadiazol-2-yl)amino]-[1,1′-biphenyl]-2-carboxylic acid] | <5 | <5
